Laboratory results published in US20120316078A1, “METHODS AND MATERIALS FOR PRODUCING POLYPEPTIDES IN VITRO” (priority 2011, published 2012).

Each sequence was assayed against GFP (Aequorea victoria, UniProt P42212). Details: array of randomly generated peptides; GFP binding assay.
Excerpt: Peptide aptamers also can be selected using a peptide array containing randomly generated peptides (e.g., 10,000 randomly generated peptides) that are 10 to 35 amino acids (e.g., 15 to 25 or 20 amino acids) in length. The peptide array can be screened using a binding assay with the protein target (e.g., GFP or thioredoxin). For example, when a fluorescent protein such as GFP is the target, GFP-binding peptides can be directly identified through a fluorescent scanner after a GFP binding assay.
In the case of CSGWNHVIYEGTRYNWFRDS [SEQ ID NO:3], the “binding to GFP on peptide array (strong fluorescence spots)” value (from here on “binding to GFP on peptide array”) is reported as “bind specifically to the GFP”. With CSGFRAMWLYRNWESQVEAT [SEQ ID NO:2] the “binding to GFP on peptide array” value was “bind specifically to the GFP”. CSGPYGTHFMYKSGGWRAIY [SEQ ID NO:4] was tested, and the “binding to GFP on peptide array” value was “bind specifically to the GFP”.
